Results from patent US20250185651A1, “COMPOSITION FOR PESTICIDE PHYTOTOXICITY REDUCTION COMPRISING AMINO ACID” (CJ CheilJedang Corporation, priority 2021, published 2025).

Each compound was assayed on soybeans (Glycine max) (assay: Example 1: soybean seed treatment with fluensulfone plus a single amino acid (pesticide phytotoxicity reduction)). Details: conclusion of Example 1; soybean seeds, 0.1% (w/v) amino acid.
Format: in vivo
Method: To 10 g of seeds of soybeans (scientific name: Glycine max), fluensulfone (Nimitz, ADAMA, 40% (w/v) Fluensulfone-containing product) or fluensulfone with 1 ml of 0.1% (w/v) amino acid solution were treated as a pesticide. […] The treatment groups were as Table 1 below.
After mixing the solutions of each group well, they were sufficiently mixed for about 1 minute so that the solutions were evenly applied to soybean seeds. After than, they were taken out in a sample dish and air-drying was performed until the solutions were dried.
Soybean seeds were sown, and the germination rate was measured by counting the number of germinated seeds among all the seeds in 7 days after sowing, and this was shown in FIG. 1.
In 20 days after sowing, the length of the shoots (from the ground to the growth point) was measured with a ruler and this was shown in FIG. 2, and the photographs of the shoots and roots were shown in FIG. 3 and FIG. 4.

Compound | phytotoxicity by fluensulfone
N[C@@H](Cc1c[nH]cn1)C(=O)O [histidine] | reduced
CC(C)C[C@H](N)C(=O)O [leucine] | reduced
N[C@@H](CCC(=O)O)C(=O)O.[Na] [sodium glutamic acid] | reduced
